In patent US5225528A, “Cyclic hexapeptide oxytocin antagonists” (priority 1990, dated 1993):
Where two headings read alike, the source gives them in different places. Numbered stars: 1 amine (or outer) side, 2 acyl side, 3 side chain; on linkers, the order of the positions; unused ones are H or OH. Square brackets hold non-standard residues; d marks the D form. Peptide text beside a SMILES is read from it. dPip(4-aza,4-Cbz) = O=C(O)[C@H]1CN(C(=O)OCc2ccccc2)CCN1; X2 = O=C(OCc1ccccc1)N1CCN([*:1])[C@H](C(=O)[*:2])C1; Pip(4-aza) = O=C(O)[C@@H]1CNCCN1; dNMeF = CN[C@H](Cc1ccccc1)C(=O)O; dPip = O=C(O)[C@H]1CCCCN1

Legend:
uterine OT receptors = target: T1, uterine OT receptors (Rattus norvegicus, UniProt P70536); assay: [^3 H]OT binding to uterine OT receptors, crude membrane preparation of uteri from DES-treated rats; details: for IC50: rat uterus membranes, 1 nM [^3 H]OT, read-out: Receptor Binding Results IC50 (nM) [^3 H]OT; for inhibition at 0.1 µM: @ 100 (nM)
T1 construct: from tissue; host or cells: uterus of DES-treated rats, crude membranes
T1 sequence (P70536 1-388): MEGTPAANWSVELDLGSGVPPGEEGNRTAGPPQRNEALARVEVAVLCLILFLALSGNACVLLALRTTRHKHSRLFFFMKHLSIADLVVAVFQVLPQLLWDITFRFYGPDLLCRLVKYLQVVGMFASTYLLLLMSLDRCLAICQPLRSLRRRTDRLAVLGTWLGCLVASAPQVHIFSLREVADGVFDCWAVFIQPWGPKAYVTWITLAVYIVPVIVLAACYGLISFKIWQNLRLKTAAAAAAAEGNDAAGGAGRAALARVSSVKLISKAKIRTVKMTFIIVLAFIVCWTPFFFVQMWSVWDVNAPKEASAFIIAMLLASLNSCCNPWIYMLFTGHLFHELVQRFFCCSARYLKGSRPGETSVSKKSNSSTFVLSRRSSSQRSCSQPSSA
Procedure: Competition studies were conducted at equilibrium (60 minutes; 22° C.) using 1 nM [^3 H]OT in the following assay buffer: 50 mM Tris-HCl, 5 mM MgCl2, and 0.1% BSA, pH 7.4.

AVP-V2 sites = target: T2, AVP-V2 sites (Rattus norvegicus, UniProt Q00788); assay: [^3 H]AVP binding to crude membrane preparation of male rat kidney medulla (AVP-V2 sites)
T2 construct: male rat liver (AVP-V1 sites) or kidney medulla (AVP-V2 sites); from tissue; host or cells: male rat kidney medulla, crude membranes
T2 sequence (Q00788 whole entry): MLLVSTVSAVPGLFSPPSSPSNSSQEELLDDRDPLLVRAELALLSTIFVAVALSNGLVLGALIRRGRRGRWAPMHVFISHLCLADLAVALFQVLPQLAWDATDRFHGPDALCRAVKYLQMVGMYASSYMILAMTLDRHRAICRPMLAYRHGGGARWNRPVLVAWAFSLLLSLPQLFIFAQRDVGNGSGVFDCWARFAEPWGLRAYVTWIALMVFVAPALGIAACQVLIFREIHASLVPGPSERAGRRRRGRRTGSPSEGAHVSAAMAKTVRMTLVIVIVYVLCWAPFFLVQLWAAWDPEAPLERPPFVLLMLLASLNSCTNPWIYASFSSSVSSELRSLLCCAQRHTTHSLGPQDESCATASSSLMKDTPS
Procedure: (§1) Nonspecific binding (5-10% of the total binding) was determined using 10 μM unlabeled AVP, and the binding reaction was terminated by filtration as described above for the [^3 H]OT binding assay.

AVP-V1 sites = target: T3, AVP-V1 sites (Rattus norvegicus, UniProt P30560); assay: [^3 H]AVP binding to crude membrane preparation of male rat liver (AVP-V1 sites)
T3 construct: crude membrane preparation of male rat liver (AVP-V1 sites); from tissue; host or cells: male rat liver, crude membranes
T3 sequence (P30560 whole entry): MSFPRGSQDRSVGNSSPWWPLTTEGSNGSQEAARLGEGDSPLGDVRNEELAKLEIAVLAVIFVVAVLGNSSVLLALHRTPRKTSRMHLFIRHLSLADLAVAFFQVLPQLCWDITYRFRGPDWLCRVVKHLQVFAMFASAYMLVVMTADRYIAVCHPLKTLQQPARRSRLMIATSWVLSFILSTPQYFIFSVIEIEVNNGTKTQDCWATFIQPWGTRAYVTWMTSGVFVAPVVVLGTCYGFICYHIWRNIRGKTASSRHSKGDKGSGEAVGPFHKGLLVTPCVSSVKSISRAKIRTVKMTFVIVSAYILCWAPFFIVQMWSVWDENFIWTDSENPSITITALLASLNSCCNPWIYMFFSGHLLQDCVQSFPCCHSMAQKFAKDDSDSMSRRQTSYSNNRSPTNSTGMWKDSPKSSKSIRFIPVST
Procedure: as §1

[1] = rat kidney medulla membranes, 2 nM [^3 H]AVP, read-out: Receptor Binding Results IC50 (nM) [^3 H]-AVP-V2
[2] = Receptor Binding Results IC50 (nM) [^3 H]-AVP-V1
[3] = Receptor Binding Results IC50 (nM) [^3 H]-AVP-V2
[4] = 1 h, read-out: [^3 H]OT: percent inhibition of radioligand at the given concentration

Row | SMILES | IC50 (uterine OT receptors) [nM] | IC50 (AVP-V2 sites; [1]) [nM] | IC50 (AVP-V1 sites; [2]) [nM] | inhibition at 1 µM (uterine OT receptors; 1 h, @ 1,000 (nM), read-out: [^3 H]OT: percent inhibition of radioligand at the given concentration) [%] | IC50 (AVP-V2 sites; [3]) [nM] | IC50 (AVP-V1 sites; read-out: Receptor Binding Results IC50 (nM) [^3 H]-AVP-V1) [nM] | inhibition at 0.1 µM (uterine OT receptors; [4]) [%]
1 | CC[C@H](C)[C@@H]1NC(=O)[C@@H](Cc2ccccc2)NC(=O)[C@@H]2CCCN2C(=O)[C@@H](Cc2ccccc2)N(C)C(=O)[C@H]2CN(C(=O)OCc3ccccc3)CCN2C(=O)[C@H]2CN(C(=O)OCc3ccccc3)CCN2C1=O [Example 85, c-[Phenylalanyl-L-isoleucinyl-D-piperazin-2-yl(4-Cbz)-D-piperazin-2-yl(4-Cbz)-D-(N^α -methyl)phenylalanyl-L-prolyl]] (cyclo([dF]I[dPip(4-aza,4-Cbz)][dPip(4-aza,4-Cbz)][dNMeF]P)) | 1000 | 10000 | > 10000 |  |  |  | 
2 | CC[C@H](C)[C@@H]1NC(=O)[C@@H](Cc2ccccc2)NC(=O)[C@@H]2CCCN2C(=O)[C@@H](Cc2ccccc2)N(C)C(=O)[C@@H]2CN(C(=O)OCc3ccccc3)CCN2C(=O)[C@H]2CN(C(=O)OCc3ccccc3)CCN2C1=O [Example 86, c-[D-Phenylalanyl-L-isoleucinyl-D-piperazin-2-yl(4-Cbz)-L-piperazin-2-yl(4-Cbz)-D-(N^α -methyl)phenylalanyl-L-prolyl]] (cyclo(I[dPip(4-aza,4-Cbz)][X2][dNMeF]P[dF])) |  | > 10000 | > 10000 | 58 |  |  | 
3 | CC[C@H](C)[C@@H]1NC(=O)[C@@H](Cc2c[nH]c3ccccc23)NC(=O)[C@@H]2CCCN2C(=O)[C@@H](Cc2ccccc2)NC(=O)[C@@H]2CNCCN2C(=O)[C@H]2CCCCN2C1=O [Example 87, c-[D-Tryptophanyl-L-isoleucinyl-D-pipecolyl-L-piperazin-2-yl-D-phenylalanyl-L-prolyl]] (cyclo(I[dPip][Pip(4-aza)][dF]P[dW])) | 62 |  | > 10000 |  | > 1000 |  | 
4 | CC[C@H](C)[C@@H]1NC(=O)[C@@H](Cc2c[nH]c3ccccc23)NC(=O)[C@@H]2CCCN2C(=O)[C@@H](Cc2c[nH]c3ccccc23)NC(=O)[C@@H]2CNCCN2C(=O)[C@H]2CCCCN2C1=O [Example 88, c-[D-Trytophanyl-L-isoleucinyl-D-pipecolyl-L-piperazin-2-yl-D-tryptophanyl-L-prolyl]] (cyclo(I[dPip][Pip(4-aza)][dW]P[dW])) | 18 |  |  |  | 1000 | 5780 | 
5 | CC[C@H](C)[C@@H]1NC(=O)[C@@H](Cc2c[nH]c3ccccc23)NC(=O)[C@@H]2CCCN2C(=O)[C@@H](Cc2ccccc2)NC(=O)[C@@H]2CN(C(=O)OCc3ccccc3)CCN2C(=O)[C@H]2CCCCN2C1=O [Example 89, c-[D-Tryptophanyl-L-isoleucinyl-D-pipecolyl-L-piperazin-2-yl(4-Cbz)-D-phenylalanyl-L-prolyl]] (cyclo(I[dPip][X2][dF]P[dW])) |  |  | > 10000 |  | > 1000 |  | 35
6 | CC[C@H](C)[C@@H]1NC(=O)[C@@H](Cc2c[nH]c3ccccc23)NC(=O)[C@@H]2CCCN2C(=O)[C@@H](Cc2ccccc2)NC(=O)[C@H]2CN(C(=O)OCc3ccccc3)CCN2C(=O)[C@H]2CCCCN2C1=O [Example 90, c-[D-Tryptophanyl-L-isoleucinyl-D-pipecolyl-D-piperazin-2-yl(4-Cbz)-D-phenylalanyl-L-prolyl]] (cyclo(I[dPip][dPip(4-aza,4-Cbz)][dF]P[dW])) |  | > 10000 | > 10000 |  |  |  | 59
7 | CC[C@H](C)[C@@H]1NC(=O)[C@@H](Cc2c[nH]c3ccccc23)NC(=O)[C@@H]2CCCN2C(=O)[C@@H](Cc2ccccc2)N(C)C(=O)[C@H]2CN(C(=O)OCc3ccccc3)CCN2C(=O)[C@H]2CCCCN2C1=O [Example 91, c-[D-Tryptophanyl-L-isoleucinyl-D-pipecolyl-D-piperazin-2-yl(4-Cbz)-D-(N^α -methyl)phenylalanyl-L-prolyl]] (cyclo(I[dPip][dPip(4-aza,4-Cbz)][dNMeF]P[dW])) | 93 |  | > 10000 |  | > 1000 |  | 
